What was measured:
[1] = Forced degradation of combined brimonidine tartrate and carbachol APIs, LC-PDA analysis; type: physicochemical; details: 66 hours
Procedure: Following the procedures shown in Table 9, the two APIs combined were stressed with moisture and heat (Sample A), 0.1 M HCl at room temperature (Sample B), 0.1 M NaOH at room temperature (Sample C), vehicle and heat (Sample D), 1 M HCl at room temperature (Sample E), and 1 M NaOH at room temperature (Sample F) for 66 hours. A drug product vehicle was stressed under heat for 66 hours as a control (Sample G). After the stress treatment was completed, all samples were removed from condition, allowed to cool to room temperatures, then neutralized where appropriate, and brought to a similar concentration level. The samples were capped and shaken until all the materials in each sample were dissolved. Then each sample solution was diluted in the HPLC method diluent used in Example 4, Table 6 and mixed well. For retention time verification purposes, a reference sample solution was also prepared using a carbachol/brimonidine six month accelerated stability sample (Table 8). The brimonidine tartrate analytical concentration for all of the degraded and the reference sample solutions was 0.1 mg/mL.
All of the sample solutions prepared as described in Table 9 were analyzed per the HPLC-PDA method shown in Example 4, Table 6. […] The level of the impurity present in both base-stressed samples is about 0.02% relative to that of the brimonidine peak. The extracted UV spectra for the RRT 0.91 impurity from the carbachol/brimonidine formulation (6 month accelerated stability sample) and the two base-stressed samples are similar for each.
The Phase I forced degradation study confirmed that the RRT 0.91 impurity was formed when the two APIs together were stressed under basic (either 0.1 M NaOH or 1 M NaOH) conditions and at room temperatures. To study temperature impact on the reaction, the two APIs, brimonidine tartrate and carbachol, were combined and stressed under both base and heat (45° C.) conditions simultaneously.
Additionally, to further confirm that the presence of both APIs was needed for the formation of the RRT 0.91 peak, individual API samples were also stressed in the same way. […] After the stress treatment was completed, all samples (H-M) were removed from condition, allowed to cool to room temperatures, neutralized where appropriate, and brought to a similar concentration level. The samples were capped and shaken until all the materials in each flask were dissolved. Then each sample solution was diluted in the HPLC method diluent (Example 4, Table 6) and mixed well.
All the base and heat-stressed sample solutions prepared as described in Table 10 were analyzed by LC-PDA analysis per the method shown in Example 4, Table 6. […] This further confirmed that the RRT 0.91 impurity was a reaction product of the two APIs.

[2] = Forced degradation samples analysed by prototype HPLC method; type: physicochemical
Procedure: A new prototype HPLC method has been developed to study early eluting peaks not well separated by the method described in Example 3, Table 3. The method better separates early eluting brimonidine-related impurities. All sample solutions from the Phase I and II stress studies were analyzed with the prototype method. […] This was consistent with the analysis results per the method described in Example 4, Table 6. Another unknown impurity, impurity B, was also observed in the chromatogram for the 0.1 M NaOH and heat-stressed combined API sample at RT 3.44 min with a level of ~0.05% relative to the brimonidine peak area. The extracted UV spectrum for impurity B is consistent with the UV Spectrum previously observed in stability samples.

Relative % Peak Area for RRT 0.91 Impurity (Versus Peak Area of Brimonidine) ([1]; 0.1M NaOH, 45° C.)	Relative % Peak Area for RRT 0.91 Impurity (Versus Peak Area of Brimonidine) ([1]; 0.1M NaOH, room temperature)	Relative % Peak Area for RRT 0.91 Impurity (Versus Peak Area of Brimonidine) ([1]; 0.1M NaOH, room temperature, listed as RRT 0.91 impurity)	Relative % Peak Area for RRT 0.91 Impurity (Versus Peak Area of Brimonidine) ([1]; 1M NaOH, 45° C.)	Relative % Peak Area for RRT 0.91 Impurity (Versus Peak Area of Brimonidine) ([1]; 1M NaOH, room temperature)	Relative % Peak Area for RRT 0.91 Impurity (Versus Peak Area of Brimonidine) ([1]; 1M NaOH, room temperature, listed as RRT 0.91 impurity)	impurity B level relative to the brimonidine peak area ([2]; 0.1 M NaOH and heat-stressed combined API sample)	impurity B level ([2]; other base-stressed combined APIs)	Compound
0.15%	0.02%	about 0.02%	0.03%	0.02%	about 0.02%			NC(=O)N1CCN=C1Nc1ccc2nccnc2c1Br [RRT 0.91 Impurity, 2-((5-bromoquinoxalin-6-yl)amino)-4,5-dihydro-1H-imidazole-1-carboxamide]
						~ 0.05%	very low levels	NC(=O)NCCNC(=O)Nc1ccc2nccnc2c1Br [Impurity B, 1-(5-bromoquinoxalin-6-yl)-3-(2-ureidoethyl)urea]
